Source: BindingDB's records for patent US9290451 (Hoffmann-La Roche Inc, 2016)

How the values were obtained:
Cannabinoid receptor 1 = Cannabinoid receptor 1 (Homo sapiens, UniProt P21554); assay: cAMP Assay; conditions: 37 °C
Experimental: (§1) CHO cells expressing human CB1 or CB2 receptors are seeded 17-24 hours prior to the experiment 50.000 cells per well in a black 96 well plate with flat clear bottom (Corning Costar #3904) in DMEM (Invitrogen No. 31331), 1×HT supplement, with 10% fetal calf serum and incubated at 5% CO2 and 37° C. in a humidified incubator. The growth medium was exchanged with Krebs Ringer Bicarbonate buffer with 1 mM IBMX and incubated at 30° C. for 30 min Compounds were added to a final assay volume of 100 ul and incubated for 30 min at 30° C. Using the cAMP-Nano-TRF detection kit the assay (Roche Diagnostics) was stopped by the addition of 50 ul lysis reagent (Tris, NaCl, 1.5% Triton X100, 2.5% NP40, 10% NaN3) and 50 ul detection solutions (20 uM mAb Alexa700-cAMP 1:1, and 48 uM Ruthenium-2-AHA-cAMP) and shaken for 2 h at room temperature. The time-resolved energy transfer is measured by a TRF reader (Evotec Technologies GmbH), equipped with a ND:YAG laser as excitation source. The plate is measured twice with the excitation at 355 nm and at the emission with a delay of 100 ns and a gate of 100 ns, total exposure time 10 s at 730 (bandwidth 30 nm) or 645 nm (bandwidth 75 nm), respectively. The FRET signal is calculated.

Cannabinoid receptor 2 = Cannabinoid receptor 2 (Homo sapiens, UniProt P34972); assay: cAMP Assay; conditions: 37 °C
Sequence of Cannabinoid receptor 2 (P34972 whole entry): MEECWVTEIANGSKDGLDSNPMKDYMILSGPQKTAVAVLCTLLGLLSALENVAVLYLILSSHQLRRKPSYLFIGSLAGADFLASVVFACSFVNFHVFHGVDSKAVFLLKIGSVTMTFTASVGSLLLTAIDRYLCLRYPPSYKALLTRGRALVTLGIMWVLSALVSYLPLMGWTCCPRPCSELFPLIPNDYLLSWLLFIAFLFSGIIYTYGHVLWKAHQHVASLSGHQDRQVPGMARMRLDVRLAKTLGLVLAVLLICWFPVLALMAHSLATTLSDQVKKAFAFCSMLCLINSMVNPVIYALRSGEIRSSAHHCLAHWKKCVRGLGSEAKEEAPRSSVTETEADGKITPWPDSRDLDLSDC
Experimental: as §1

Sequence of Cannabinoid receptor 1 (P21554 whole entry): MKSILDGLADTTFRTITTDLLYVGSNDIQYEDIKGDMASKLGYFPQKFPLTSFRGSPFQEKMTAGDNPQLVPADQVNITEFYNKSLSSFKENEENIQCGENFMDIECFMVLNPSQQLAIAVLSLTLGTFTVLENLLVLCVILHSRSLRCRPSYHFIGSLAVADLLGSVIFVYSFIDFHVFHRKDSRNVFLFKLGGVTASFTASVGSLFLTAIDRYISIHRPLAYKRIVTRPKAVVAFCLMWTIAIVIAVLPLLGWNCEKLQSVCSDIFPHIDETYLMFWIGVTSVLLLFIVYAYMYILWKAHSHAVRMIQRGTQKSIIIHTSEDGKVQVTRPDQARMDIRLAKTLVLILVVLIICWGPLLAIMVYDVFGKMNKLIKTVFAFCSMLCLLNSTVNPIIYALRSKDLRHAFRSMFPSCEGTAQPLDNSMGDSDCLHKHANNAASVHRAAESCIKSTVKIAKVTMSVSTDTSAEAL

| SMILES | EC50 (Cannabinoid receptor 1) | EC50 (Cannabinoid receptor 2) |
| --- | --- | --- |
| O=C(c1ccc(C2CCCC2)c(OCC2CC2)n1)N1CCS(=O)(=O)CC1 [US9290451, 39] | > 10000 nM | 303 nM |
| CC(C)(CO)NC(=O)c1ccc(NC2CC2)c(OCC2CC2)n1 [US9290451, 159] | > 10000 nM | 780 nM |
| Cc1cnc(C(C)(C)NC(=O)c2ccc(N3CC(F)(F)C3)c(OCC3CC3)n2)s1 [US9290451, 353] | > 10000 nM | 4.9 nM |
| O=C(c1ccc(C2CC2)c(-c2cccc(Cl)c2)n1)N1CCS(=O)(=O)CC1 [US9290451, 48] | > 10000 nM | 477 nM |
